As usually defined, the IC50 is the concentration needed to halve the response being measured. High values mean a need for much substance, low ones inhibition by little substance.

Molecules are shown by their SMILES.

This is an account of results in ChEMBL document CHEMBL1151241, “Sesquiterpenes and flavonol glycosides from Zingiber aromaticum and their CYP3A4 and CYP2D6 inhibitory activities” (J Nat Prod, 2004).

One test addresses Cytochrome P450 3A4 (Homo sapiens, UniProt P08684). In words: Inhibition of human CYP3A4 by radiometric assay. It is filed as ADME.
For another test, the target named is Cytochrome P450 2D6 (Homo sapiens, UniProt P10635). In words: Inhibition of human CYP2D6 by radiometric assay. The format is ADME.
Sequence of Cytochrome P450 2D6 (P10635 whole entry): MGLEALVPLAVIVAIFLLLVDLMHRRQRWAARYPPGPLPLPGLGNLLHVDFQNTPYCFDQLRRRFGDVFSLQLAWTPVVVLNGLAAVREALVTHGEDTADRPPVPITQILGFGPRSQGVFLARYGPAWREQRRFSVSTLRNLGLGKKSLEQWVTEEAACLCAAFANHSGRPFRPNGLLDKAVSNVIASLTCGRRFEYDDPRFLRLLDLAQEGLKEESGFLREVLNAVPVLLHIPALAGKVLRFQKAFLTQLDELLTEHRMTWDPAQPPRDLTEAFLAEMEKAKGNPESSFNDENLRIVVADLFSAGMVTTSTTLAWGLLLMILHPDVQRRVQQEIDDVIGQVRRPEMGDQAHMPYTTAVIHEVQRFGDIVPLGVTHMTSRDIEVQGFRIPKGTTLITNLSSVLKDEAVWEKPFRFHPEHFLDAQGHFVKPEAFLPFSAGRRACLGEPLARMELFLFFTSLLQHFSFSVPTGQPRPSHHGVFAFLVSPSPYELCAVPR

Sequence of Cytochrome P450 3A4 (P08684 whole entry): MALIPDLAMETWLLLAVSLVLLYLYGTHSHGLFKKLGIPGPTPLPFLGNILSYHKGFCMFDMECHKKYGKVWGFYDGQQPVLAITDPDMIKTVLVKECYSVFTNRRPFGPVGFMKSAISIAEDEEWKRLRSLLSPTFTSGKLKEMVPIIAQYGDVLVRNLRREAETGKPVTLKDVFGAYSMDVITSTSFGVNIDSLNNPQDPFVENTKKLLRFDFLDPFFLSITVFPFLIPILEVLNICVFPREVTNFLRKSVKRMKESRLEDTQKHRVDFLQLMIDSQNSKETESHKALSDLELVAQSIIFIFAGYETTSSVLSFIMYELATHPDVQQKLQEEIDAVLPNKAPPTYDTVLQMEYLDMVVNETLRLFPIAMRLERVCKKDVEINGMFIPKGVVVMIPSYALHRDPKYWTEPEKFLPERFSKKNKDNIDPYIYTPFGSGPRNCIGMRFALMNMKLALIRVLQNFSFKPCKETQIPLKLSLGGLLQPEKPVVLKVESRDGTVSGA

Turning to `CC(=O)O[C@@H]1[C@@H](OC(C)=O)[C@@H](O)[C@H](Oc2c(-c3ccc(O)cc3)oc3cc(O)cc(O)c3c2=O)O[C@H]1C`, the IC50 on Cytochrome P450 3A4 came to 20.6 µM; against Cytochrome P450 2D6, 50.5 µM.
The corresponding values for `CCCCC/C=C/C(=O)CCc1ccc(O)c(OC)c1` [SHOGAOL] are 77.7 µM and > 100 µM.
Regarding `CC(=O)O[C@H]1[C@H](Oc2c(-c3ccc(O)cc3)oc3cc(O)cc(O)c3c2=O)O[C@@H](C)[C@H](O)[C@H]1O`, the half-inhibitory concentration (IC50) on Cytochrome P450 3A4 is 59 µM; at Cytochrome P450 2D6, > 100 µM.
As to `COc1c(-c2ccc(O)cc2)oc2cc(O)cc(O)c2c1=O` [ISOKAEMPFERIDE], the IC50 worked out at 36.2 µM against Cytochrome P450 3A4 and 4.63 µM at Cytochrome P450 2D6.
With `COc1ccc(-c2oc3cc(O)cc(O)c3c(=O)c2OC)cc1` [ERMANIN], the figures for the IC50 against Cytochrome P450 3A4 and on Cytochrome P450 2D6 were 21.8 µM and 45.5 µM, respectively.
On to `C/C1=C\CC(C)(C)/C=C/C(=O)/C(C)=C/[C@H](O)C1`, for which the IC50 on Cytochrome P450 3A4 was 35.5 µM; on Cytochrome P450 2D6, > 100 µM.
The matching figures for `CC(=O)O[C@@H]1[C@@H](O)[C@H](C)O[C@@H](Oc2c(-c3ccc(O)cc3)oc3cc(O)cc(O)c3c2=O)[C@@H]1O`: 98.3 µM and > 100 µM.
The corresponding values for `CC(=O)O[C@@H]1[C@@H](OC(C)=O)[C@H](C)O[C@@H](Oc2c(-c3ccc(O)cc3)oc3cc(O)cc(O)c3c2=O)[C@@H]1OC(C)=O` are 14.4 µM and 43.3 µM.
As for `C/C1=C\[C@H](O)C[C@@]2(C)O[C@@H]2CC(C)(C)/C=C/C1=O`, the figures for the IC50 on Cytochrome P450 3A4 and at Cytochrome P450 2D6 were 62.5 µM and > 100 µM, respectively.
Turning to `C/C1=C\CC[C@@]2(C)O[C@@H]2CC(C)(C)/C=C/C1=O` [ZERUMBONE EPOXIDE], the concentration for half-maximal inhibition (IC50) was 48.4 µM at Cytochrome P450 3A4 and > 100 µM against Cytochrome P450 2D6.
`CC(=O)O[C@@H]1[C@@H](O)[C@H](C)O[C@@H](Oc2c(-c3ccc(O)cc3)oc3cc(O)cc(O)c3c2=O)[C@@H]1OC(C)=O`: the results for the IC50 at Cytochrome P450 3A4 and at Cytochrome P450 2D6 were 55.8 µM and > 100 µM, respectively.
As for `CC(=O)O[C@@H]1[C@@H](O)[C@@H](OC(C)=O)[C@H](Oc2c(-c3ccc(O)cc3)oc3cc(O)cc(O)c3c2=O)O[C@H]1C`, the concentration for half-maximal inhibition (IC50) against Cytochrome P450 3A4 was 31.6 µM; against Cytochrome P450 2D6, > 100 µM.
The matching figures for `C/C1=C\[C@H](O)C[C@]2(C)O[C@@H]2CC(C)(C)/C=C/C1=O`: 42.6 µM and > 100 µM.
With `C/C1=C\CC(C)(C)/C=C/C(=O)/C(C)=C/CC1` [ZERUMBONE], the half-inhibitory concentration (IC50) against Cytochrome P450 3A4 is 21.8 µM; on Cytochrome P450 2D6, > 100 µM.
